Where two headings read alike, the source gives them in different places.
Columns and labels:
[1] = tested on: γ-H2AX levels in OVCAR-3 (ovarian carcinoma) cells; experiment: DNA damage by γ-H2AX levels; format: cell-based; conditions: single agent 10 μM; control 0.5% DMSO medium
Experimental: OVCAR-3 (ovarian carcinoma) cells were treated with MP470 (10 μM), MP470.HCl (10 μM), and/or topotecan (10 μM).

[2] = Solubility of MP470 and its salts (Table 2); format: physicochemical
SB-CL2 melanoma cells = experiment: SB-CL2 melanoma tumor model in athymic nude mice; format: in vivo; conditions: IP 50 & 75 mg/kg, qd × 5, TV-10
Experimental: (§1) MP470 and MP470 HCl were tested against different tumor types in athymic nude mice as summarized below (Table 8). Various formulations and routes were evaluated. HT-29 colorectal cancer cells and SB-CL2 melanoma cells were implanted subcutaneously, while A549 lung cancer cells, MiaPaCa-2 pancreatic cancer cells, TT medullary thyroid cancer cells, and OVCAR-3 ovarian cancer cells were implanted […] in the hind flank of mice. All animals were allowed to develop medium-sized (80-125 mg) tumors, before initiation of dosing. Tumor volume and mouse bodyweight were followed over the course of the study.

[3] = Single-dose pharmacokinetics in rat (Table 10); format: in vivo
Source text: MP470 free base has a relative bioavailability of […] as compared to the HCl salt.

A549 lung cancer cells = format: in vivo; conditions: for tumor growth rate: qd×5×3 wk (vehicle 43)
Experimental: as §1
A549 Lung Cancer Model—In 40 nude mice implanted intradermally with A549 lung cancer cells, animals were dosed with vehicle orally, MP470 in 100% corn oil orally, or 5-FU in sterile saline IP. […] […] While MP470 reduced tumor growth rates, treatment of these cells with 5-FU reduced the overall tumor growth rate per day further to 19.5 mm3/d on Day 26.
To determine whether MP470.HCl in combination with carboplatin increased the anti-tumor activity in xenograft tumors growing in vivo, the agents were administered alone and in combination and tumor growth was monitored. MP470.HCl (50 mg/kg) was combined with carboplatin (30 mg/kg) alone or carboplatin with taxol (20 mg/kg).

in vivo = conditions: dog
Experimental: Two groups of dogs, each consisting of one male and one female, received alternating escalating single doses of 30, 60, 240, 1000, and 2000 mg/kg of the test article. MP470.HCl was administered by capsule. […] No test article related mortalities or clinical signs of toxicity were observed. Test article related effects were limited to emesis following administration of 1000 and 2000 mg/kg doses. Single oral dose NOEL was determined to be 240 mg/kg and the acute oral MTD was 2000 mg/kg (highest dose tested).

[4] = tested on: Rad51 in A549 non-small cell lung cancer cells; experiment: Rad51 protein level by Western blot in cells; format: cell-based; conditions: MP470.HCl alone, 24 hrs
Experimental: Rad51 protein levels were also determined in A549 non-small cell lung cancer cells using combinations with DNA damaging agents. Cells were treated for 24 hrs with 6.1 μM (IC30 of carboplatin alone) carboplatin in combination with 0.71 μM or 3.82 μM MP470.HCl. Protein lysates were isolated from treated and non-treated cells, separated by SDS-PAGE, and transferred to nitrocellulose. […] The increase in Rad51 due to carboplatin treatment was reduced by 26% when treated in combination with 0.71 μM MP470.HCl and by 42% with 3.82 μM MP470.HCl

NCI-H647 NSCLC cells = experiment: Sensitization of NSCLC cells to carboplatin; format: cell-based; conditions: Homo sapiens; NCI-H647, single agent
Experimental: (§2) The non-small cell lung cancer cell lines A549 and NCI-H647 were used for these experiments. […] The IC50 concentrations observed for carboplatin against both of these cell lines was consistent with this.
(§3) Two sub-IC50 doses of MP470.HCl were tested in combination with carboplatin to evaluate possible synergism between these agents and consequently a lower IC50 value for carboplatin in each of the cell lines.
(§4) MP470.HCl was able to dramatically decrease the IC50 of carboplatin in these cells.

A549 NSCLC cells = experiment: Sensitization of NSCLC cells to carboplatin; format: cell-based; conditions: Homo sapiens; A549, single agent
Experimental: as §2, §3, §4

OVCAR-3 cells = experiment: OVCAR-3 cell proliferation; format: cell-based; conditions: Homo sapiens
Experimental: The IC50 for MP470.HCl on OVCAR-3 cells proliferation was 0.9 μM (FIG. 4). It appears to have a cytostatic effect on cancer cells in addition to being cytotoxic.

cKit (V654A) (h) = cKit (V654A) (h) (Homo sapiens, UniProt P10721, V654A); experiment: Mutant kinase IC50 screen; format: biochemical
Experimental: (§5) IC50 values for MP470.HCl were determined for four mutant c-Kit kinases, one mutant Flt3 kinase, and two mutant PDGFRα kinases.

PDGFRα (D842V) (h) = PDGFRα (D842V) (h) (Homo sapiens, UniProt P16234, D842V); experiment: Mutant kinase IC50 screen; format: biochemical
Experimental: as §5

cKit (D816H) (h) = cKit (D816H) (h) (Homo sapiens, UniProt P10721, D816H); experiment: Mutant kinase IC50 screen; format: biochemical
Experimental: as §5

cKit (D816V) (h) = cKit (D816V) (h) (Homo sapiens, UniProt P10721, D816V); experiment: Mutant kinase IC50 screen; format: biochemical
Experimental: as §5

cKit (V560G) (h) = cKit (V560G) (h) (Homo sapiens, UniProt P10721, V560G); experiment: Mutant kinase IC50 screen; format: biochemical
Experimental: as §5

Flt3 (D835Y) (h) = Flt3 (D835Y) (h) (Homo sapiens, UniProt P36888, D835Y); experiment: Mutant kinase IC50 screen; format: biochemical
Experimental: as §5

PDGFRα (V561D) (h) = PDGFRα (V561D) (h) (Homo sapiens, UniProt P16234, V561D); experiment: Mutant kinase IC50 screen; format: biochemical
Experimental: as §5

[5] = 50 mM PBS buffer, pH 7, aqueous buffer, 50 mM PBS buffer, pH 7, read-out: Solubility (50 mM PBS buffer, pH 7, Exp. 15)
[6] = water, read-out: Solubility in water
[7] = Rat, 100 mg/kg PO, Dry Blend, hydrochloride, 100 mg/kg

Chain of cKit (D816H) (h) (P10721 26-976 D816H): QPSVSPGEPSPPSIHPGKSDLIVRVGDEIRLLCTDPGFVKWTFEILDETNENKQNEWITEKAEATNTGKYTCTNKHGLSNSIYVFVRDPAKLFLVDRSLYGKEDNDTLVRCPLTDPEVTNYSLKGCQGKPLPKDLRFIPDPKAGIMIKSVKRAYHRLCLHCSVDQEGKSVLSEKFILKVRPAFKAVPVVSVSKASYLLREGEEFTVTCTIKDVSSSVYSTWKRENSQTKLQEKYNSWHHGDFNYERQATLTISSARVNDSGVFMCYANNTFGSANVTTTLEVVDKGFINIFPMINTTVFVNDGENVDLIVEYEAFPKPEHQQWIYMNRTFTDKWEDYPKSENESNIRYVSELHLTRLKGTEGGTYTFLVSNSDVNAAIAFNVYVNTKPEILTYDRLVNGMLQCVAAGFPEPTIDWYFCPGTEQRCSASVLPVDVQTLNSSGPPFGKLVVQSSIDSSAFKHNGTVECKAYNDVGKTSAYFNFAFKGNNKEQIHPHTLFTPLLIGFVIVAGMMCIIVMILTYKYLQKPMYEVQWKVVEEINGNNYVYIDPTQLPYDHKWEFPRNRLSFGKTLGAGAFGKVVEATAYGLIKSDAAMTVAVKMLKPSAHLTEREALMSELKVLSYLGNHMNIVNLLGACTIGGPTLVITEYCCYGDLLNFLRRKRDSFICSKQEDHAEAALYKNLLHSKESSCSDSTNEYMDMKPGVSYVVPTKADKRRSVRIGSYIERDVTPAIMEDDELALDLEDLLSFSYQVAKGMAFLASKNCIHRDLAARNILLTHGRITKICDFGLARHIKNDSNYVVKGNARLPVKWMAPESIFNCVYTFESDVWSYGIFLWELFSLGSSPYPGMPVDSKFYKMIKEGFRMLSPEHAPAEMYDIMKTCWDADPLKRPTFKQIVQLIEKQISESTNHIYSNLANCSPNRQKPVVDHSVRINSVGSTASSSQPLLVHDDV
Chain of cKit (D816V) (h) (P10721 26-976 D816V): as the sequence (P10721 26-976 D816H) above, with H791V counted along it
Chain of cKit (V560G) (h) (P10721 26-976 V560G): as the sequence (P10721 26-976 D816H) above, with V535G, H791D counted along it
Chain of PDGFRα (V561D) (h) (P16234 24-1089 V561D): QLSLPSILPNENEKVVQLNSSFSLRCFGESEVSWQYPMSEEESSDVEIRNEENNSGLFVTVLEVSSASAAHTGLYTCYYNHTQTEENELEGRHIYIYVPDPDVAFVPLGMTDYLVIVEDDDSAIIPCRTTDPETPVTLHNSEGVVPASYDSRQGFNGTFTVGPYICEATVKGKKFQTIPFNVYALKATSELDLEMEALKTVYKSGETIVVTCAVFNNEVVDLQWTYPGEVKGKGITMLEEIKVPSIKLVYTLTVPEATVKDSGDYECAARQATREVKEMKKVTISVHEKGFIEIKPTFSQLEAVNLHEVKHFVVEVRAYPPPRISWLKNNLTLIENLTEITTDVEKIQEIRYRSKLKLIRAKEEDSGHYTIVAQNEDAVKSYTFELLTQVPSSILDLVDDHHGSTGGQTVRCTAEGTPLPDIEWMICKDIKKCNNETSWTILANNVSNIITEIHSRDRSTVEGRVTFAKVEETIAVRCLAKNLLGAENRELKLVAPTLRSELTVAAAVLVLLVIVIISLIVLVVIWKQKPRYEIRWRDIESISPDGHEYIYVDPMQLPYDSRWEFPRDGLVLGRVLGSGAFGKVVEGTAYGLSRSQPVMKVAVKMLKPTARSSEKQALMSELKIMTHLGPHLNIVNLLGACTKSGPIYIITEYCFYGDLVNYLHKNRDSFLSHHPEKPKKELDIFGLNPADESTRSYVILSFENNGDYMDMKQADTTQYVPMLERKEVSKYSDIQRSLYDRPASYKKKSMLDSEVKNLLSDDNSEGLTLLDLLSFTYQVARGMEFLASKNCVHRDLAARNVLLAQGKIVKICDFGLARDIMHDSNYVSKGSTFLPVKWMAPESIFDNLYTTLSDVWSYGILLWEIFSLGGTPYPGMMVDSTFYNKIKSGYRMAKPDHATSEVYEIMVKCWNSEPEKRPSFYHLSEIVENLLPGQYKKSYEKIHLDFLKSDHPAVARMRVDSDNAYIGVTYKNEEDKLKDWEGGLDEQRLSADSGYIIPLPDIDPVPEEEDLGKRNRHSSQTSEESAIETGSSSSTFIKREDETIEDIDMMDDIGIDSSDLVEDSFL
Chain of PDGFRα (D842V) (h) (P16234 24-1089 D842V): as the sequence (P16234 24-1089 V561D) above, with D538V, D819V counted along it
Chain of cKit (V654A) (h) (P10721 26-976 V654A): as the sequence (P10721 26-976 D816H) above, with V629A, H791D counted along it

## S=C(NCc1ccc2c(c1)OCO2)N1CCN(c2ncnc3c2oc2ccccc23)CC1 [MP470, 4-[1]benzofuro[3,2-d]pyrimidin-4-yl-N-(1,3-benzodioxol-5-ylmethyl)piperazine-1-carbothioamide]
[1]
  Increase in DNA damage (γ-H2AX) over control: did not cause DNA damage
[2]; [5]
  Solubility: 1.22 µg/mL
[2]; [6]
  Solubility: 4.94 µg/mL
SB-CL2 melanoma cells
  Outcome: tumor growth: Dose dependency
[3]; Rat, 100 mg/kg PO, Dry Blend
  Cmax: 710 ng/mL
  Tmax: 11.3 h
[3]; Rat, 100 mg/kg PO, Dry Blend, 100 mg/kg
  AUC0→last: 7910 ng·h/mL
[3]; Rat, 100 mg/kg PO, Dry Blend, listed as MP470 (free base), 100 mg/kg
  AUC0→last: 7900 ng·h/mL
[3]; in vivo, Rat, 100 mg/kg oral, dry powder blend, read-out: relative bioavailability as compared to the HCl salt
  bioavailability: 8%
A549 lung cancer cells; A549 lung, MP470 PO 50, 100, 200 mg/kg, (qd × 5) × 2 w, corn oil
  Outcome: tumor growth: no apparent dose relationship
A549 lung cancer cells; Day 26, 50 mg/kg oral in corn oil
  tumor growth rate: 28.3 mm3/d
A549 lung cancer cells; Day 26, 100 mg/kg oral in corn oil
  tumor growth rate: 34.9 mm3/d
A549 lung cancer cells; Day 26, 150 mg/kg oral in corn oil
  tumor growth rate: 28.1 mm3/d

## Cl.S=C(NCc1ccc2c(c1)OCO2)N1CCN(c2ncnc3c2oc2ccccc23)CC1 [MP470.HCl, 4-[1]benzofuro[3,2-d]pyrimidin-4-yl-N-(1,3-benzodioxol-5-ylmethyl)piperazine-1-carbothioamide hydrochloride]
In vivo; both sexes, po
  MTD at 24 h: 2000 mg/kg
In vivo; both, 24 h
  Single oral dose NOEL: 240 mg/kg
[4]
  Rad51 expression: did not alter the expression of Rad51
[1]
  Increase in DNA damage (γ-H2AX) over control: did not cause DNA damage
[2]; [5]
  Solubility: 3.28 µg/mL
[2]; [6]
  Solubility: 31.1 µg/mL
NCI-H647 NSCLC cells
  IC50: 7860 nM
A549 NSCLC cells
  IC50: 6900 nM
OVCAR-3 cells
  IC50: 900 nM
[3]; Rat, 3 mg/kg IV bolus, TV-10
  AUC0→last: 18810 ng·h/mL
  Cmax: 8530 ng/mL
  Tmax: 0.02 h
[3]; Rat, 100 mg/kg PO, Corn oil
  AUC0→last: 73350 ng·h/mL
  Cmax: 5270 ng/mL
  Tmax: 4.0 h
[3]; Rat, 100 mg/kg PO, Dry Blend
  Cmax: 7190 ng/mL
  Tmax: 9.5 h
[3]; [7]
  AUC0→last: 94310 ng·h/mL
  AUC0→last (μg · h/mL): about 94 μg · h/mL
[3]; Rat, 100 mg/kg orally, range over vehicles
  Tmax: 4.0 to 9.5 h
[3]; in vivo, po, Rat, 100 mg/kg orally, range over vehicles, read-out: Cmax
  Cmax: 4600 to 7200 ng/mL
[3]; rat, in vivo, iv, 3 mg/kg
  t½β: 0.36 h
cKit (V654A) (h)
  IC50: 0.127 µM
PDGFRα (D842V) (h)
  IC50: 0.081 µM
cKit (D816H) (h)
  IC50: 0.01 µM
cKit (D816V) (h)
  IC50: 0.95 µM
cKit (V560G) (h)
  IC50: 0.034 µM
Flt3 (D835Y) (h)
  IC50: 8.05 µM
PDGFRα (V561D) (h)
  IC50: 0.04 µM
A549 lung cancer cells; A459 lung cancer, MP470.HCl PO 50 mg/kg, qd × 21, corn oil, hydrochloride, 50 mg/kg
  Outcome: tumor growth: Dose dependency

Source: patent US8445502B2, “Pharmaceutical formulations comprising salts of a protein kinase inhibitor and methods of using same” (Astex Pharmaceuticals, Inc., priority 2007, dated 2013)
